The test system of this assay is HepG2/STING/ISG54Luc reporter cells. Nature of the assay: ISG54 luciferase reporter assay. The conditions noted are these: Homo sapiens, MinEC5X: minimum effective concentration to induce 5-fold luciferase activity vs mock-treated controls, 4 h post treatment, read-out: Concentration required for 5-fold of IFN-[…] induction. The class given is cell-based. The protocol: Cell lines. Human hepatoblastoma cell line HepG2 was obtained from ATCC. Establishment of HepG2-derived cell line stably expressing human STING: HepG2 cells stably expressing wild-type human STING (HepG2/STING), were established by transduction of pCX4bsr retroviral vector (Addgene) containing the corresponding STING cDNA and selection with 10 μg/ml of blasticidin. The HepG2/STING cells were then transduced by pGreenFire ISRE lentivector system (System Biosciences) to generate a reporter cell line HepG2/STING/ISG54Luc that expresses firefly luciferase under the control of an ISG54 promoter. The pGreenFire ISRE reporter lentiviral vector contains four copies of consensus interferon stimulated response element (ISRE) sequences derived from ISG54 ISRE1, which control the expression of both green fluorescent protein (GFP) and firefly luciferase in response to IRF3 activation and IFN stimulation. HepG2/STING/ISG54Luc cells were maintained in Dulbecco's modified minimal essential medium (DMEM)/F12 (Invitrogen) supplemented with 10% fetal bovine serum, 100 U/ml penicillin and 100 μg/ml streptomycin, as well as 400 μg/ml of G418 and 2 μg/ml of puromycin.
ISG54 luciferase reporter assay: HepG2/STING/ISG54Luc reporter cells were seeded in black wall/clear bottom 96-well plates at a density of 4×10^4/well in […] of medium overnight. The test compounds were dissolved in DMSO with a stock concentration of 100 mM, and subjected to evaluation of dose-dependent effect on luciferase activity, starting from 100 μM in 2-fold dilution down to 0.78 μM. The experiments were performed in triplex wells.
The firefly luciferase activities were determined at 4 h post treatment with test compounds by using equal volume ([…]) of Steady-Glo to the culture medium (Promega), followed by luminometry in a TopCounter (Perkin Elmer).
Reporting the ISG54 promotor activation activity. The luciferase activities were converted to fold of induction relative to mock treated control. A dose-dependent curve of luciferase activities (fold of induction) for each test compound was generated using average value from the triplex wells. The activity of the test compounds was reported based on the Minimum Effective Concentration (MinEC5X) to induce 5-fold luciferase activity than that of the mock-treated controls.
(In general: A reporter such as luciferase makes a cellular process visible.)
As for `O=C(Nc1cccc2ccccc12)c1cc2c(cc1Br)OCO2`, the EC (5-fold induction) is at most 50 µM. `O=C(Nc1cccc2ccccc12)c1ccccc1Br`: the EC (5-fold induction) was 50 to 100 µM. Turning to `O=C(Nc1cccc2ccccc12)c1ccc(Cl)cc1Br`, the EC (5-fold induction) was at most 50 µM. On to `O=C(Nc1cccc2ccccc12)c1ccc(Cl)cc1F`, for which the EC (5-fold induction) is at most 50 µM. Turning to `COc1ccc(C(=O)Nc2cccc3ccccc23)c(Br)c1`, the EC (5-fold induction) was at most 50 µM. Turning to `O=C(Nc1cccc2ccccc12)c1ccc(Cl)cc1Cl`, the EC (5-fold induction) is at most 50 µM. `Cc1cc(Cl)ccc1C(=O)Nc1cccc2ccccc12`: the EC (5-fold induction) is at most 50 µM.

For the molecule `O=C(Nc1cccc2ccccc12)c1cc(F)c(F)cc1Br`, the EC (5-fold induction) was at most 50 µM. For the molecule `O=C(Nc1cccc2ccccc12)c1cc(F)ccc1Br`, the EC (5-fold induction) is at most 50 µM.

Turning to `O=C(Nc1cccc2ccccc12)c1cccc(Cl)c1Cl`, the EC (5-fold induction) is at most 50 µM. Then `O=C(Nc1cccc2ccccc12)c1nccnc1Cl`, with at most 50 µM; and `Cn1nc(C(=O)Nc2cccc3ccccc23)c2ccccc21`, with at most 50 µM. Take `O=C(Nc1cccc2c1CCCC2)c1cc2c(cc1Br)OCO2`: the EC (5-fold induction) was at most 50 µM. With `Cc1cccc(NC(=O)c2cc3c(cc2Br)OCO3)c1Br`, the EC (5-fold induction) is at most 50 µM.

Take `O=C(Nc1cccc(Cl)c1Cl)c1cc2c(cc1Br)OCO2`: the EC (5-fold induction) was at most 50 µM. Regarding `O=C(Nc1cccc2ccccc12)c1ccc(F)cc1Br`, the EC (5-fold induction) was at most 50 µM. For `O=C(Nc1cccc2ccccc12)c1ccc(Br)cc1Cl`, the EC (5-fold induction) was at most 50 µM. Then `Cc1cccc(NC(=O)c2cc(F)c(F)cc2Br)c1C`, with 50 to 100 µM. `O=C(Nc1cccc2c1CCC2)c1cc2c(cc1Br)OCO2`: the EC (5-fold induction) was at most 50 µM. In the case of `O=C1CCN(C(=O)c2cc3c(cc2Br)OCO3)c2ccccc21`, the EC (5-fold induction) is at most 50 µM. For `Cc1c(Br)cccc1NC(=O)c1cc2c(cc1Br)OCO2`, the EC (5-fold induction) was at most 50 µM. On to `Cc1cccc(NC(=O)c2cc3c(cc2Br)OCO3)c1C`, for which the EC (5-fold induction) is at most 50 µM. As for `Cc1cccc(C)c1NC(=O)c1cc2c(cc1Br)OCO2`, the EC (5-fold induction) is at most 50 µM. As for `Cc1c(F)cccc1NC(=O)c1cc2c(cc1Br)OCO2`, the EC (5-fold induction) was at most 50 µM.

As for `O=C(Nc1cccc2c1CCCC2)c1cc(F)c(F)cc1Br`, the EC (5-fold induction) was at most 50 µM. On to `C=C(C)c1ccccc1NC(=O)c1cc2c(cc1Br)OCO2`, for which the EC (5-fold induction) was at most 50 µM. Next, `O=C(Nc1cccc2c1CCC2)c1cc(F)c(F)cc1Br`: at most 50 µM.

The values are drawn from US12509436B2, “Benzamide derivatives as cGAS-sting pathway agonists” (Baruch S. Blumberg Institute, priority 2018, dated 2025).
